Measured values reported in the NIST ThermoML archive (doi:10.1016/j.tca.2016.11.011).
Values joined by “and” are separate entries in the source; they are usually repeats but may differ in a detail not shown here. Equal entries are not always repeated. Numbers after ± are expanded uncertainties.

Details: DSC

Row | Glass transition temperature | SMILES
1 | 44.5 ± 1 °C and 42.2 ± 1 °C | COC(=O)C1=C(C)NC(C)=C(C(=O)OC)C1c1ccccc1[N+](=O)[O-]
2 | -24.7 ± 1 °C and -26.5 ± 1 °C | O[C@@H]1[C@@H](O)[C@@H]2OC[C@@H](O2)[C@H]1O [1,6-anhydro-β-D-glucopyranose]
3 | 24 ± 1 °C and 21.7 ± 1 °C | CC(=O)Nc1ccc(O)cc1 [N-acetyl-p-aminophenol]
